In patent US9382568B2, “Determining the sensitivity of a cell to a drug” (RANDOX LABORATORIES LTD., priority 2008, dated 2016):

Tests used:
[1] = tested on: NCTC 13427 (lux+ cdd deficient E. coli MG 1655 expressing human dCK); assay: Response of bioluminescent bacterial biosensor (growth OD600 and light output); format: cell-based
Source text: (§1) Bacterial Strains, Plasmids and Growth Media. E. coli SØ5218 is a cdd-deficient strain expressing the human dCK cDNA on the IPTG-inducible pTrc99-A plasmid. E. coli MG1655 is a derivative of the wild-type E. coli K-12 with a requirement for pyrimidine in minimal medium, due to suboptimal expression of the orotate phosphoribosyltransferase gene coded for by pyrE. Both strains were made self-bioluminescent by transforming them with the broad-host vector pBBR1MCS-2 carrying the luxCDABE cassette from Photorhabdus luminescens as an EcoRI PCR fragment. Luria-Bertani (LB) medium was used for routine culturing of bacteria. The antibiotics ampicillin (to maintain pTrc-A) and kanamycin (to maintain pBBR1MCS-2) were added at 100 and 10 μg/ml, respectively. Growth inhibition experiments were performed in LB RPMI 1640 or in minimal salt medium (AB) plus 0.2% glucose, 0.2% vitamin-free casamino acids and supplemented with thiamine and leucine.
Construction of a cdd-deficient strain of E. coli MG 1655. A library of E. coli MG 1655 strains was constructed using transposition mutagenesis with P1 phage carrying the Tn10 transposon. Mutants carrying the transposon were selected for by plating on tetracycline (10 μg/ml) agar plates and cdd mutants were selected for by plating on to plates containing 10 μg/ml of the analogue 5-fluoro-2′ deoxycytidine which is toxic to E. coli expressing cdd. The phenotype of cdd mutants was confirmed by the absence of cytidine deaminase activity.
In order to measure Ara-C response in a nutrient rich intracellular environment, an alternative cdd-deficient strain of a bioluminescent E. coli MG1655 mutant was constructed using transposon mutagenesis, which was further transformed with pTrc99-A, to give IPTG inducible expression of dCK. […] One possible explanation for the light increase is that the DNA damage caused by Ara-CTP induces bioluminescence that could be used in DNA repair by a photo-reactivation process.
In order to increase the specificity of the proposed assay, direct effects of the active intracellular drug derivative, Ara-CTP, on the bacterial biosensor were monitored (FIG. 3A). […] To verify this, the assay was repeated with the addition of alkaline phosphatase at the start.

[2] = tested on: AML; assay: Clinical outcome of AML patients (Ara-C used in induction therapy); format: in vivo, human; set-up: key: NR = No remission; CR = Complete remission
Description: The assay was evaluated using a KG-1a cell line and AML samples from patients with known response to Ara-C used in induction therapy. FIG. 6 depicts the light output from the lysate of the Ara-C sensitive cell line KG-1a treated with high (25 μM) Ara-C concentrations. […] The three day cytotoxicity test confirmed that KG-1a cells are sensitive to Ara-C.
The cell lysis assay was applied to clinical samples of peripheral blood ([…]) from AML patients. These preliminary assays, conducted on 7 clinical samples, gave 100% correlation with clinical response to therapy.

[3] = tested on: AML; assay: as above; format: in vivo, human; set-up: key: NR = No remission; CR = Complete remission; conditions: Table 2 patient 4, diagnosis M4
[4] = tested on: Escherichia coli; conditions: lacks dCK, deaminates Ara-C via cdd; cited from earlier work
[5] = tested on: KG-1a cells; assay: Cell Titer-Glo luminescent cell viability (three day cytotoxicity) assay, cell line; format: cell-based; conditions: 25 μM Ara-C, 72 hours
Description: (§2) Cell lines, bone marrow and blood samples. The monocytic cell line KG-1a (DSMZ, Germany) was grown and maintained as a cell suspension in RPMI 1640 medium supplemented with 2 mM L-glutamine and 10% foetal calf serum. Mononuclear cell fractions were isolated from patient peripheral blood or bone marrow samples (n=8) using density gradient centrifugation (SG […]) followed by resuspension in RPMI 1640 medium prior to incubation with Ara-C. Cryopreserved bone marrow samples were thawed and re-suspended in RPMI 1640 medium prior to drug exposure.
(§3) Cell Lysis Assay. AML cell lines or patient derived samples were treated with 25 μM Ara-C for 90 min at 37° C. and 5% CO2, harvested, washed and resuspended in fresh RPMI 1640 medium. EDTA and saponin were added to final concentrations of 1.5 mM and 0.1%, respectively. Samples were then vortexed for 30 sec and cell debris were removed by centrifugation at 1027 g for 5 min. Samples from the lysate or supernatant were mixed with reporter bacteria, 1 mM of IPTG an 10 units of alkaline phosphatase. Bioluminescence and growth (OD600) of the bacteria were monitored in a multimode microplate reader. Sensitivity of AML cell lines or patient derived samples to Ara-C was also assayed using Cell Titer-Glo® Luminescent Cell Viability Assay kit (Promega). […]

[6] = tested on: KG-1a cells; assay: Cell lysis assay with bioluminescent reporter bacteria, cell line; format: cell-based; conditions: KG-1a treated with 25 μM Ara-C, p=0.0001
Description: as §2, §3

[7] = tested on: E. coli SØ5218; assay: Growth of cdd-deficient E. coli mutant SØ5218 expressing human dCK; format: cell-based; conditions: rich growth medium (data not shown)
Source text: Ara-C has no effect on Escherichia coli as it lacks dCK and deaminates Ara-C into Ara-uracil through the activity of deoxycytidine deaminase (cdd). Wang et al., Antimicrob. Agents. […] The Ara-C effect on growth was completely abolished when assayed in the absence of the dCK inducible […], IPTG, indicating human dCK expression in the bacteria leads to Ara-CTP incorporation into bacterial DNA.
as §1, with “leucine. […]” for “leucine.”

[8] = tested on: E. coli SØ5218; conditions: upon expression of human dCK gene (IPTG), Wang et al. 1998; cited from earlier work
[9] = tested on: AML patient derived samples; assay: Cell Titer-Glo luminescent cell viability (cytotox) assay, patient samples; format: cell-based, human; conditions: 25 μM Ara-C 72 hours
Description: as §2
(§4) Cell Lysis Assay. AML cell lines or patient derived samples were treated with 25 μM Ara-C for 90 min at 37° C. and 5% CO2, harvested, washed and resuspended in fresh RPMI 1640 medium. EDTA and saponin were added to final concentrations of 1.5 mM and 0.1%, respectively. Samples were then vortexed for 30 sec and cell debris were removed by centrifugation at 1027 g for 5 min. Samples from the lysate or supernatant were mixed with reporter bacteria, 1 mM of IPTG an 10 units of alkaline phosphatase. Bioluminescence and growth (OD600) of the bacteria were monitored in a multimode microplate reader. Sensitivity of AML cell lines or patient derived samples to Ara-C was also assayed using Cell Titer-Glo® Luminescent Cell Viability Assay kit (Promega). Samples were treated with 25 μM Ara-C for 72 hours at 37° C. and 5% CO2 before measuring intracellular levels of ATP according to manufacturer's instructions. Paired t-tests were used to analyse significant differences in bioluminescence output between control and treated assay samples.

[10] = tested on: AML patient derived samples; assay: Cell lysis assay with bioluminescent reporter bacteria, patient samples; format: cell-based, human; conditions: for Bioluminescent Assay (sensitive): 25 μM Ara-C 90 min; for Treatment % difference in peak RLU a) L:LI / Treatment % difference in peak RLU b) L:LIP / Treatment % difference in peak RLU c) LI:LIP: drug treated minus control
Description: as §2, §4
A representation of light output during the bioluminescent assay for patients who are metabolic sensitive, metabolic resistant, metabolic partially resistant and uptake resistant is shown in FIG. 5.
Table 3 validates the application of the bioluminescent assay using relative percentage differences in peak light output from the various treatments to identify resistant and sensitive patients. Data shown in Table 3 is computed according to the equation {[RLU drug treated sample (LIP/LI)−RLU control (LIP/LI)]×100}, using c) as an example.

[11] = Table 2 patient 1, diagnosis M2
[12] = Table 2 patient 2, diagnosis M4
[13] = Table 2 patient 3, diagnosis M2
[14] = Table 2 patient 5, diagnosis M4
[15] = Table 2 patient 6, diagnosis M0
[16] = Table 2 patient 4, diagnosis M4
[17] = Table 2 patient 7, diagnosis M3

Nc1ccn([C@@H]2O[C@H](COP(=O)(O)OP(=O)(O)OP(=O)(O)O)[C@@H](O)[C@@H]2O)c(=O)n1 [Ara-CTP]
direct entry into reporter bacteria ([1]; Ara-CTP added without alkaline phosphatase, FIG. 3A): does not directly enter reporter bacteria | time after which increase in light output was evident ([1]; alkaline phosphatase added at the start, FIG. 3B): 3 to 5 h | time of growth after which increase in light output was observed ([1]; no alkaline phosphatase added): at least 15 h

Nc1ccn([C@@H]2O[C@H](CO)[C@@H](O)[C@@H]2O)c(=O)n1 [Ara-C]
Clinical Outcome [2, 11]: NR | Clinical Outcome [2, 12]: CR | Clinical Outcome [2, 13]: NR | Clinical Outcome [2, 14]: NR | Clinical Outcome [2, 15]: NR | Clinical Outcome ([2]; Table 2 patient 7, diagnosis M3 (Remission, death)): Remission | Clinical Outcome ([2]; Table 3 patient 1): sensitive | Clinical Outcome ([2]; Table 3 patient 2): sensitive | Clinical Outcome ([2]; Table 3 patient 3): resistant | Clinical Outcome ([2]; Table 3 patient 7): resistant | Clinical Outcome [3]: CR | effect on Escherichia coli [4]: no effect | light output (bioluminescence, RLU) of reporter strain ([1]; drug-treated cultures, IPTG present, p=0.0001): significant increase in light output | growth (OD600) of reporter strain ([1]; in the presence of Ara-C, induced by IPTG, nutrient rich medium): reduced growth | lowest concentration the bacterial biosensor responds to ([1]; low concentrations of Ara-C, FIG. 2): 0.05 µM | three day cytotoxicity test [5]: sensitive | light output from IPTG-induced lysate with BAP [6]: significant increase in the light output | light output from IPTG-induced lysate without BAP [6]: significant increase in the light output | response of SØ5218 [7]: did not respond | relative growth of SØ5218 [8]: reduced relative growth | Cytotox Assay (DLO) [9, 11]: 84% | Cytotox Assay (DLO) [9, 12]: 99% | Cytotox Assay (DLO) [9, 13]: 79% | Cytotox Assay (DLO) [9, 16]: 99% | Cytotox Assay (DLO) [9, 14]: 62% | Cytotox Assay (DLO) [9, 15]: 5% | Cytotox Assay (DLO) [9, 17]: 91% | Bioluminescent Assay (sensitive) [10, 11]: No | Bioluminescent Assay (sensitive) [10, 12]: Yes | Bioluminescent Assay (sensitive) [10, 13]: No | Bioluminescent Assay (sensitive) [10, 16]: Yes | Bioluminescent Assay (sensitive) [10, 14]: No | Bioluminescent Assay (sensitive) [10, 15]: No | Bioluminescent Assay (sensitive) [10, 17]: No | interaction of the drug with the patient sample (uptake and metabolism category) ([10]; Table 3 patient 1): take up and metabolise the drug | Treatment % difference in peak RLU a) L:LI ([10]; Table 3 patient 1): −10.25% | Treatment % difference in peak RLU b) L:LIP ([10]; Table 3 patient 1): 19.20% | Treatment % difference in peak RLU c) LI:LIP ([10]; Table 3 patient 1): 24.19% | interaction of the drug with the patient sample (uptake and metabolism category) ([10]; Table 3 patient 2): take up and metabolise the drug | Treatment % difference in peak RLU a) L:LI ([10]; Table 3 patient 2): −4.00% | Treatment % difference in peak RLU b) L:LIP ([10]; Table 3 patient 2): 62.40% | Treatment % difference in peak RLU c) LI:LIP ([10]; Table 3 patient 2): 48.03% | interaction of the drug with the patient sample (uptake and metabolism category) ([10]; Table 3 patient 3): takes up but does not metabolise the drug | Treatment % difference in peak RLU a) L:LI ([10]; Table 3 patient 3): −81.04% | Treatment % difference in peak RLU b) L:LIP ([10]; Table 3 patient 3): −120.00% | Treatment % difference in peak RLU c) LI:LIP ([10]; Table 3 patient 3): −4.51% | interaction of the drug with the patient sample (uptake and metabolism category) ([10]; Table 3 patient 4, not clinically confirmed): resistant to take up of the drug | Treatment % difference in peak RLU a) L:LI ([10]; Table 3 patient 4): 2.28% | Treatment % difference in peak RLU b) L:LIP ([10]; Table 3 patient 4): 3.28% | Treatment % difference in peak RLU c) LI:LIP ([10]; Table 3 patient 4): 0.88% | Treatment % difference in peak RLU a) L:LI ([10]; Table 3 patient 5): −61.46% | Treatment % difference in peak RLU b) L:LIP ([10]; Table 3 patient 5): −98.39% | Treatment % difference in peak RLU c) LI:LIP ([10]; Table 3 patient 5): −13.87% | Treatment % difference in peak RLU a) L:LI ([10]; Table 3 patient 6): −13.59% | Treatment % difference in peak RLU b) L:LIP ([10]; Table 3 patient 6): −7.03% | Treatment % difference in peak RLU c) LI:LIP ([10]; Table 3 patient 6): 5.50% | Treatment % difference in peak RLU a) L:LI ([10]; Table 3 patient 7): −16.37% | Treatment % difference in peak RLU b) L:LIP ([10]; Table 3 patient 7): −16.37% | Treatment % difference in peak RLU c) LI:LIP ([10]; Table 3 patient 7): 1.20%
